Source: paper PMC7756445, “A Novel Prodrug of a nNOS Inhibitor with Improved Pharmacokinetic Potential” (Chemmedchem, 2020)
Where two headings read alike, the source gives them in different places.

What was measured:
[1] = Log D and log P by shake-flask method; assay type: physicochemical; conditions: for logP: shake-flask, as free amine, mean ± SD of three
From the text: The herein presented amidoxime 2 was designed as prodrug of the amidine 1 to improve membrane permeability and oral bioavailability. In this context, the deepening of the physicochemical properties is essential to obtain a favorable pharmacological profile. Therefore, we investigated the lipophilicity, the passive permeation through the human GI tract through the PAMPA assays, and the chemical and enzymatic stabilities in simulated GI fluids and plasma. […] In this study, the lipophilicity of our compounds was determined by means of the “shake‐flask method” and compared to the corresponding values calculated by the software. ^[43] However, for ionizable compounds, the distribution coefficient (log D) should be used instead of log P in the pH range where ionic species exist. ^[44] In this study, log P and log D were calculated (Table 1).
The column was a Waters Symmetry RP‐C18 column (4.6×150 mm, 5 μm). The mobile phase was a mixture of TFA 0.01 M/ACN/(MeOH/THF 90 : 10) 20/52/28 and the flow rate was 0.7 mL/min. The UV detector was set at a length of 254 nm.
Both n‐octanol and aqueous buffer (pH 1.4, 6.5 and 9.4) solutions were saturated of each other. 2 mg of tested compound was dissolved in 500 μL of organic phase and mixed with an equal volume of aqueous buffer by repeated inversions of up to 200 times for 5 min and then allowed to stand for 30 min for the phases to fully separate. Thereafter, the respective phases were analyzed by HPLC.

[2] = PAMPA-GI assay; set-up: Papp at 2 h: dose or concentration left out as unconfirmed; conditions: for Papp at 2 h: PAMPA; for PAMPA-GI permeability (in words): only at pH 7.4
Description: (§1) The relative passive transcellular diffusion of compounds, expressed as permeability coefficient (Pe), was determined with a permeability equation. ^[45] The permeabilities of 1, 2, and 1400 W were determined at pH 5.0, 6.5, and 7.4 to mimic the physiological conditions of the GI tract (Table 1). […] As the new prodrug was designed for the potential treatment of neurodegenerative diseases, an important parameter is its capability to cross the BBB.
Each donor filtration plate well, carefully impregnated with 5 µL of this solution, was added of 150 μL of […] test compound buffer solutions (phosphate buffer for pH 7.4 and pH 6.5 and hydrochloric acid buffer for pH 1.4). Subsequently, the drug‐filled donor plate was placed onto the acceptor plate prefilled with the same buffer (300 μL) as the acceptor solution. Once replaced the plate lid, the resulting assembled donor‐acceptor plates were incubated at room temperature for 2 h. The concentration in the acceptor and donor solutions were determined by HPLC. The Pe was determined as previously reported. ^[47]

[3] = PAMPA-BBB assay; set-up: Papp at 18 h: dose or concentration left out as unconfirmed; conditions: for Papp at 18 h: pig, PAMPA
Description: as §1
PAMPA‐BBB assays were performed following the same procedure described above for PAMPA‐GI. Briefly, an artificial membrane consisting in a porcine polar brain lipid extract mixture (purchased from Avantis Polar Lipids, Alabaster, AL, USA) and an incubation time of 18 h were adopted as experimental conditions.

[4] = test system: mARC; set-up: method as in PMID 31790578; conditions: known in vivo studies; cited from earlier work
[5] = test system: nNOS; set-up: method as in PMID 20933416; conditions: previously reported; cited from earlier work
[6] = test system: eNOS; set-up: method as in PMID 20933416; conditions: previously reported; cited from earlier work
[7] = test system: iNOS; set-up: method as in PMID 20933416; conditions: previously reported; cited from earlier work
[8] = porcine polar brain lipid, 18 h

Compound | logD ([1]; n-octanol/aqueous buffer pH 1.4, mean ± SD of three, read-out: log D 1.4) | logD ([1]; n-octanol/aqueous buffer pH 6.5, mean ± SD of three, read-out: log D 6.5) | logD ([1]; n-octanol/aqueous buffer pH 9.4, mean ± SD of three, read-out: log D 9.4) | logP ([1]; n-octanol/aqueous buffer) | Papp at 2 h ([2]; pH 1.4) | Papp at 2 h ([2]; pH 6.5) | Papp at 2 h ([2]; pH 7.4) | PAMPA-GI permeability (in words) [2] | Papp at 18 h [3] | PAMPA-BBB permeation class [3, 8] | conversion to the corresponding benzamidine in vivo [4] | logD ([1]; n-octanol/aqueous buffer, pH 1.4, n-octanol/aqueous buffer pH 1.4, mean ± SD of three, read-out: log D 1.4) | logD ([1]; n-octanol/aqueous buffer, pH 6.5, n-octanol/aqueous buffer pH 6.5, mean ± SD of three, read-out: log D 6.5) | logD ([1]; n-octanol/aqueous buffer, pH 9.4, n-octanol/aqueous buffer pH 9.4, mean ± SD of three, read-out: log D 9.4) | Papp at 18 h ([3]; PAMPA-BBB permeability Pe, porcine polar brain lipid, 18 h) | melting point | IC50 [5] | eNOS/nNOS selectivity [6] | iNOS/nNOS selectivity [7]
CC(=N)NCc1cccc(CN)c1 [1400 W, reference compound] | -1.82 | -1.78 | -1.66 | -1.66 | 0.98 ×10⁻⁶ cm/s | 1.02 ×10⁻⁶ cm/s | 1.86 ×10⁻⁶ cm/s | good permeability | 1.49 ×10⁻⁶ cm/s | CNS− (CNS− (indicative of low BBB permeation): Pe <2.0) | – | – | – | – | – | – | – | – | –
NC(=NO)c1ccccc1 [BAO, benzamidoxime] | – | – | – | – | – | – | – | – | – | – | completely converted | – | – | – | – | – | – | – | –
Br.CC(=N)NC(c1ccccc1)c1ccccc1 [Compound 1, 1‐(benzhydrylamino)ethaniminium bromide] | – | – | – | 2.54 | 0.57 ×10⁻⁶ cm/s | 1.02 ×10⁻⁶ cm/s | 1.88 ×10⁻⁶ cm/s | good permeability | – | CNS± (CNS± (discrete BBB permeation): Pe from 4.0 to 2.0) | – | -0.85 | -0.31 | 0.75 | 2.7 ×10⁻⁶ cm/s | 278 to 280 °C | 300 nM | 1166 folds | 100 folds
